Laboratory results reported in patent EP0567324A1, “Medicaments for treating gar-transformylase-dependent tumors” (ELI LILLY AND COMPANY, priority 1992, dated 1993).

What was measured:
[1] = test system: aggressive soft tissue sarcoma characterized as either a malignant Schwannoma or a tendosynovial sarcoma; conditions: human, in vivo
[2] = test system: adenocarcinoma originating in the ethmoid sinus; conditions: human, in vivo

In the case of `Nc1nc2c(c(=O)[nH]1)C[C@@H](CCc1ccc(C(=O)N[C@@H](CCC(=O)O)C(=O)O)cc1)CN2` [Lometrexol, 5,10-dideaza-5,6,7,8-tet-rahydrofolic acid], the “clinical response in the irradiated field” value [1] is reported as “dramatic”, the “lometrexol retention in the patients body” value [1] is reported as “prolonged” and the “mucositis due to the drug” value [1] is reported as “mild mucositis”. For the same compound, the “thrombocytopenia to” value [1] was 55,000, the “tumor course after lometrexol, before radiation” value [1] was “continued to rapidly progress” and the “change of massively enlarged liver (hepatic metastases) after treatment” value [2] was “marked shrinkage”. For the same compound, the “duration of prolonged thrombocytopenia and anemia” value [2] was “over 7 weeks” and the “persistent anemia at a Hgb of” value [2] was 5.4.
